Reference: US20150366787A1, “SESBANIA ACULEATA EXTRACTS AND METHODS OF USE” (AVON PRODUCTS, INC., priority 2013, published 2015)

System: dorsal forearm skin
Experiment: In vivo biopsy (dorsal forearm, histology)
Set-up: species or system human
Details: 3 weeks semi-occlusion patch, retinol 0.05%
Protocol: Healthy female Caucasian subjects aged 30-65, with skin type II or III and mild to moderate photo damage, were treated on the dorsal forearm for 3 weeks (3 consecutive rounds of 5×24 hour) under semi-occlusion patches. Test articles including active ingredients, vehicle controls, and retinol were applied in a randomized allocation on 6 sites on each forearm. The application dose was 2 mg/cm^2. After 3 week treatment, a 2 mm punch biopsy was obtained from each treatment site and fixed in 10% buffered formalin. Tissue samples then embedded in paraffin, sectioned (5 μm thickness), and stained for skin markers after re-hydration. […] Retinol at a active concentration of 0.05% was used a positive control. Retinol use at a 0.05% active concentration in the semi-occlusion patch vehicle formulation yielded a visual score of approximately 0.56 out of a 4 point scale in HE staining (measuring hematoxylin and eosin staining, an indication of viable epidermal thickness and health) with 63.6% of the subjects showing an improvement; a visual score of 0.6 out of a 4 point scale in M-TC staining (Masson's trichrome staining, assessing total mature fiber-forming collagen in the dermis—mainly Collagen I, […] and Collagen V) with 51.6% of the subjects showing an improvement; a visual score of 0.52 out of a 4 point scale for pro-Col (measuring new synthesis of Collagen I by skin fibroblasts in the dermis) with 51.6% of the subjects showing an improvement; and a visual score of 0.57 out of a 4 point scale for HA (measuring level of hyaluronic acid in both dermis and epidermis) with 50% of the subjects showing an improvement.

[1] = out of a 4 point scale, extract 0.33%

Q: How did the “subjects showing an improvement, HA” value (extract 0.33%) turn out when `CC1=C(/C=C/C(C)=C/C=C/C(C)=C/CO)C(C)(C)CCC1` [Retinol] was run?
A: 50%

Q: What about the “subjects showing an improvement, HE staining” value (extract 0.33%) of the same molecule?
A: 63.6%

Q: And the “subjects showing an improvement, M-TC staining” value (extract 0.33%)?
A: 51.6%

Q: And the “subjects showing an improvement, pro-Col” value (extract 0.33%)?
A: 51.6%

Q: And the “visual score in HE staining (viable epidermal thickness and health)” value (out of a 4 point scale, 2 mg/cm^2, extract 0.33% (Example 1B ethanol/water extract))?
A: approximately 0.56

Q: And the “visual score for HA (hyaluronic acid in dermis and epidermis)” value [1]?
A: 0.57

Q: And the “visual score for pro-Col (new synthesis of Collagen I)” value [1]?
A: 0.52

Q: And the “visual score in M-TC staining (total mature fiber-forming collagen in the dermis)” value [1]?
A: 0.6
